# Measured values: patent US6080772A, “Thiazole compounds and methods of modulating signal transduction” (Sugen, Inc., priority 1997, dated 2000)
# Like-named read-outs stand apart in the source and are kept apart here.
# How the values were obtained:
# primary adipocytes = test: Primary adipocyte glucose uptake assay (14C glucose); settings: test compound 50 mM without insulin, compared to samples containing only insulin (final concentration=100 μm)
# insulin receptor (IR) = test: Phosphotyrosine enzyme linked immunosorbent assay: pTyr on insulin receptor in NIH3T3 cells over-expressing human IR (H25 cells); settings: for EC50: read-out: ACTIVITY EC50; for ACTIVITY (compared to control) / CONC.: Table I; for CONC.: concentration of the compound which produces the percentage increase in phosphotyrosine over the vanadate control, 90 min incubation, no insulin
"EC50 (insulin receptor (IR); Table III, […]) [µM]",Molecule,response in the primary adipocyte glucose uptake assay compared with the insulin control (primary adipocytes),other results
–,2-[(5-nitrothiazol-2-yl)mercapto]-3-cyano-5-acetoxy-6-dimethoxymethyl-pyridine [Compound 97],did not give a response greater than or equal to the insulin control,"level of pTyr on insulin receptor over time (FIG. 1) (insulin receptor (IR); kinetic experiments, range of concentrations, period of 90 minutes): progressively raised the level of pTyr on insulin receptor; EC50 (insulin receptor (IR)): 34 µM"
–,"O=[N+]([O-])c1cnc(Sc2n[nH]c(-c3ccccc3)n2)s1 [Compound 1, 3-[(5-nitrothiazol-2-yl)mercapto]-5-phenyl-1,2,4-triazole]",did not give a response greater than or equal to the insulin control,"ACTIVITY (compared to control) (insulin receptor (IR); […]): 30%; CONC. (insulin receptor (IR)): 53 µM; EC50 (insulin receptor (IR); Table II, […], no lot stated): 17 µM"
–,"CC(C)(C)c1nc(Sc2ncc([N+](=O)[O-])s2)n[nH]1 [Compound 2, 2-[(5-nitro-thiazol-2-yl)mercapto]-5-t-butyl-1,2,4-triazole]",did not give a response greater than or equal to the insulin control,"CONC. (insulin receptor (IR)): 4.1 µM; EC50 (insulin receptor (IR); Table II, […], no lot stated): 16 to 20 µM"
–,"O=[N+]([O-])c1cnc(Sc2n[nH]c(-c3cccs3)n2)s1 [Compound 3, 3-[(5-nitrothiazol-2-yl)mercapto]-5-(thien-2-yl)-1,2,4-triazole]",did not give a response greater than or equal to the insulin control,"ACTIVITY (compared to control) (insulin receptor (IR); […]): 50%; CONC. (insulin receptor (IR)): 77 µM; EC50 (insulin receptor (IR); Table II, […], no lot stated): 22 to 32 µM"
75,"O=[N+]([O-])c1cnc(Sc2nnc(SCc3cccc(C(F)(F)F)c3)s2)s1 [Compound 63, 2-[(5-Nitrothiazol-2-yl)mercapto]-5-[3-(trifluoromethyl)benzylmercapto]-1,3,4-thiadiazole]",–,–
> 25,"O=C(Sc1nnc(Sc2ncc([N+](=O)[O-])s2)s1)c1ccccc1 [Compound 65, 2-Benzoylmercapto-5-[(5-nitrothiazol-2-yl)mercapto]-1,3,4-thiadiazole]",–,–
3,"O=[N+]([O-])c1cnc(Sc2nccc(-c3ccc(-n4cnc(Cl)c4Cl)cc3)n2)s1 [Compound 67, 4-[4-(4,5-Dichloroimidazol-1-yl)phenyl]-2-[(5-nitrothiazol-2-yl)mercapto]pyrimidine]",–,–
> 100,"O=C1CCCc2nc(Sc3ncc([N+](=O)[O-])s3)ncc21 [Compound 68, 2-[(5-Nitrothiazol-2-yl)mercapto]cyclohexylpyrimid-5-one]",–,–
> 100,"Cc1ccc(Nc2nnc(Sc3ncc([N+](=O)[O-])s3)s2)cc1 [Compound 69, 2-(4-Methylphenylamino)-5-[(5-nitrothiazol-2-yl)mercapto]-1,3,4-thiadiazole]",–,–
> 100,"Cc1cccc(C)c1NC1=CN=C(Sc2ncc([N+](=O)[O-])s2)SN1 [Compound 70, 3-(2,6-dimethylphenylamino)-6-[(5-nitrothiazol-2-yl)mercapto]-1,2,5-thiadiazine]",–,–
24,"Cc1ccc(Nc2nnc(Sc3ncc([N+](=O)[O-])s3)s2)c(C)c1 [Compound 71, 2-(2,4-Dimethylphenylamino)-5-[(5-nitrothiazol-2-yl)mercapto]-1,3,4-thiadiazole]",–,–
20,"Cc1cc(C)c(Nc2nnc(Sc3ncc([N+](=O)[O-])s3)s2)c(C)c1 [Compound 72, 2-[(5-Nitrothiazol-2-yl)mercapto]-5-(2,4,6-trimethylphenylamino)-1,3,4-thiadiazole]",–,–
10,"O=[N+]([O-])c1cnc(Sc2nnc(Nc3ccccc3)s2)s1 [Compound 73, 2-[(5-Nitrothiazol-2-yl)mercapto]-5-phenylamino-1,3,4-thiadiazole]",–,–
> 100,"Cc1cc(C)c(Nc2nnc(Sc3ncc([N+](=O)[O-])s3)s2)cc1C [Compound 74, 2-[(5-Nitrothiazol-2-yl)mercapto]-5(2,4,5-trimethylphenylamino)-1,3,4-thiadiazole]",–,–
> 100,O=[N+]([O-])c1cnc(Sc2nnc(NC3CCCCC3)s2)s1 [Compound 75],–,"increase in PTYR (insulin receptor (IR); Table III, 100, 50 and 25 μM): 47%"
63.8,"COc1ccccc1Nc1nnc(Sc2ncc([N+](=O)[O-])s2)s1 [Compound 76, 2-(2-Methoxyphenylamino)-5-[(5-nitrothiazol-2-yl)mercapto]-1,3,4-thiadiazol]",–,–
5,"Cc1ccc(Cl)cc1Nc1nnc(Sc2ncc([N+](=O)[O-])s2)s1 [Compound 77, 2-(5-Chloro-2-methylphenylamino)-5-[(5-nitrothiazol-2-yl)mercapto]-1,3,4-thiadiazole]",–,–
–,"O=[N+]([O-])c1ccc(-c2nnc(Sc3ncc([N+](=O)[O-])s3)[nH]2)o1 [Compound 78, 2-(2-Nitrofuran-5-yl)-5-[(5-nitrothiazol-2-yl)mercapto]-1,2,4-triazole]",–,EC50 (insulin receptor (IR)): 36 µM
7.8,"O=[N+]([O-])c1cnc(Sc2nnnn2Cc2ccccc2)s1 [Compound 80, 1-Benzyl-5-[(5-nitrothiazol-2-yl)mercapto]tetrazole]",–,–
34,"O=[N+]([O-])c1cnc(Sc2nnc(Nc3ccccc3Cl)s2)s1 [Compound 81, 2-(2-Chlorophenylamino)-5-[(5-nitrothiazol-2-yl)mercapto]-1,3,4-thiadiazole]",–,–
–,"O=[N+]([O-])c1cnc(Sc2ncc[nH]2)s1 [Compound 87, 2-[(5-Nitrothiazol-2-yl)mercapto]imidazole]",did not give a response greater than or equal to the insulin control,–
–,"O=[N+]([O-])c1cnc(Sc2nnnn2-c2cccc(O)c2)s1 [Compound 88, 1-(3-Hydroxyphenyl)-5-[(5-nitrothiazol-2-yl)mercapto]tetrazole]",did not give a response greater than or equal to the insulin control,–
–,"CCCCCC(=O)Nc1ccc(-n2nnnc2Sc2ncc([N+](=O)[O-])s2)cc1 [Compound 89, 1-[4-(n-Hexanoylamino)phenyl]-5-[(5-nitrothiazol-2-yl)mercapto]tetrazole]",did not give a response greater than or equal to the insulin control,–
–,"O=[N+]([O-])c1cnc(Sc2nc3cc4c(cc3[nH]2)OCCO4)s1 [Compound 90, 7-[(5-Nitrothiazol-2-yl)mercapto]-benzimidazo[5,6-b]1,4-dioxane]",did not give a response greater than or equal to the insulin control,–
–,"O=[N+]([O-])c1cnc(Sc2nnnn2-c2ccccc2)s1 [Compound 91, 5-[(5-Nitrothiazol-2-yl)mercapto]-1-phenyltetrazole]",did not give a response greater than or equal to the insulin control,–
–,"C#CCSc1nnc(Sc2ncc([N+](=O)[O-])s2)s1 [Compound 92, 2-[(5-Nitrothiazol-2-yl)mercapto]-5-propargylmercapto-1,3,4-thiadiazole]",did not give a response greater than or equal to the insulin control,–
–,"CC(C)n1c(Sc2ncc([N+](=O)[O-])s2)nc2cc(Cl)ccc21 [Compound 96(a), 5-Chloro-1-isopropyl-2-[(5-nitrothiazol-2-l)mercapto]benzimidazole]",did not give a response greater than or equal to the insulin control,–
–,Cc1ccsc1/C=C/c1ccnc(Sc2ncc([N+](=O)[O-])s2)n1 [Compound 98],did not give a response greater than or equal to the insulin control,–
